Assay results from ChEMBL document CHEMBL3045586, “Synthesis and antimicrobial activity of some new 4-triazolylmethoxy-2H-chromen-2-one derivatives” (2012).
Values after ≈ are worked out from the molar mass of the structure shown.

Legend:
Aspergillus flavus [1] = experiment: Antifungal activity against Aspergillus flavus MTCC 277 at […] to […] ug/ml after 28 to 30 hr by cup-plate method; assay type: functional
Aspergillus fumigatus [2] = experiment: Antifungal activity against Aspergillus fumigatus MTCC 343 at […] to […] ug/ml after 28 to 30 hr by cup-plate method; assay type: functional
Pseudomonas aeruginosa [3] = assay type: functional, MTCC 424
[4] = system: Staphylococcus epidermidis; experiment: Antibacterial activity against Staphylococcus epidermidis MTCC 435 after 16 to 18 hr by serial dilution method; assay type: functional
Salmonella typhi [5] = experiment: Antibacterial activity against Salmonella enterica subsp. enterica serovar Typhi MTCC 733 after 16 to 18 hr by serial dilution method; assay type: functional
Staphylococcus aureus [6] = assay type: functional, MTCC 096
Staphylococcus aureus [7] = experiment: Antibacterial activity against Staphylococcus aureus MTCC 096 after 16 to 18 hr by serial dilution method; assay type: functional
Klebsiella pneumoniae [8] = assay type: functional, MTCC 432
Staphylococcus aureus [9] = experiment: Bactericidal activity against Staphylococcus aureus MTCC 096 after 3 days; assay type: functional; details: MTCC 096, 72 h
Bacillus subtilis [10] = experiment: Antibacterial activity against Bacillus subtilis MTCC 441 after 16 to 18 hr by serial dilution method; assay type: functional
Salmonella typhi [11] = experiment: Antibacterial activity against Salmonella enterica subsp. enterica serovar Typhi MTCC 733 at […] to […] ug/ml after 16 to 18 hr by cup-plate method; assay type: functional
Escherichia coli [12] = experiment: Bactericidal against Escherichia coli MTCC 443 after 3 days; assay type: functional; details: MTCC 443, 72 h
Aspergillus niger [13] = experiment: Fungicidal activity against Aspergillus niger MTCC 282 after 3 days; assay type: functional; details: MTCC 282, 72 h
Aspergillus flavus [14] = experiment: Antifungal activity against Aspergillus flavus MTCC 277 after 28 to 30 hr by serial dilution method; assay type: functional
Candida albicans [15] = experiment: Fungicidal activity against Candida albicans MTCC 227 after 3 days; assay type: functional; details: MTCC 227, 72 h
Aspergillus fumigatus [16] = experiment: Antifungal activity against Aspergillus fumigatus MTCC 343 after 28 to 30 hr by serial dilution method; assay type: functional
Aspergillus niger [17] = experiment: Antifungal activity against Aspergillus niger MTCC 282 after 28 to 30 hr by serial dilution method; assay type: functional
Aspergillus niger [18] = experiment: Antifungal activity against Aspergillus niger MTCC 282 at […] to […] ug/ml after 28 to 30 hr by cup-plate method; assay type: functional
[19] = system: Staphylococcus epidermidis; assay type: functional, MTCC 435
Bacillus subtilis [20] = assay type: functional, MTCC 441
Escherichia coli [21] = assay type: functional, MTCC 443
Klebsiella pneumoniae [22] = experiment: Bactericidal activity against Klebsiella pneumoniae MTCC 432 after 3 days; assay type: functional; details: MTCC 432, 72 h
Klebsiella pneumoniae [23] = experiment: Antibacterial activity against Klebsiella pneumoniae MTCC 432 after 16 to 18 hr by serial dilution method; assay type: functional
Candida albicans [24] = assay type: functional, MTCC 227
Pseudomonas aeruginosa [25] = experiment: Antibacterial activity against Pseudomonas aeruginosa MTCC 424 after 16 to 18 hr by serial dilution method; assay type: functional
Escherichia coli [26] = experiment: Antibacterial activity against Escherichia coli MTCC 443 after 16 to 18 hr by serial dilution method; assay type: functional
Candida albicans [27] = experiment: Antifungal activity against Candida albicans MTCC 227 after 28 to 30 hr by serial dilution method; assay type: functional

Row | Structure (SMILES) | inhibition zone (IZ) (Aspergillus flavus [1]) [mm] | inhibition zone (IZ) (Aspergillus fumigatus [2]) [mm] | inhibition zone (IZ) (Pseudomonas aeruginosa [3]) [mm] | MIC [4] [µg/mL] | MIC (Salmonella typhi [5]) [µg/mL] | inhibition zone (IZ) (Staphylococcus aureus [6]) [mm] | MIC (Staphylococcus aureus [7]) [µg/mL] | inhibition zone (IZ) (Klebsiella pneumoniae [8]) [mm] | MBC (Staphylococcus aureus [9]) [µg/mL] | MIC (Bacillus subtilis [10]) [µg/mL] | inhibition zone (IZ) (Salmonella typhi [11]) [mm] | MBC (Escherichia coli [12]) [µg/mL] | MFC (Aspergillus niger [13]) [µg/mL] | MIC (Aspergillus flavus [14]) [µg/mL] | MFC (Candida albicans [15]) [µg/mL] | MIC (Aspergillus fumigatus [16]) [µg/mL] | MIC (Aspergillus niger [17]) [µg/mL] | inhibition zone (IZ) (Aspergillus niger [18]) [mm] | inhibition zone (IZ) [19] [mm] | inhibition zone (IZ) (Bacillus subtilis [20]) [mm] | further results
1 | COc1ccc(-c2nnc(COc3cc(=O)oc4ccccc34)[nH]2)cc1OC | <10 | <10 | <10 | 25 (≈ 65.9 µM) | 6.25 (≈ 16.5 µM) | 14 | 6.25 (≈ 16.5 µM) | 11 | 12.5 (≈ 32.9 µM) | 25 (≈ 65.9 µM) | 13 | 25 (≈ 65.9 µM) | 25 (≈ 65.9 µM) | 25 (≈ 65.9 µM) | 25 (≈ 65.9 µM) | 25 (≈ 65.9 µM) | 6.25 (≈ 16.5 µM) | 13 | <10 | <10 | inhibition zone (IZ) (Escherichia coli [21]): <10 mm; MBC (Klebsiella pneumoniae [22]): 25 µg/mL (≈ 65.9 µM); MIC (Klebsiella pneumoniae [23]): 12.5 µg/mL (≈ 32.9 µM); inhibition zone (IZ) (Candida albicans [24]): 15 mm; MIC (Pseudomonas aeruginosa [25]): 25 µg/mL (≈ 65.9 µM); MIC (Escherichia coli [26]): 25 µg/mL (≈ 65.9 µM); MIC (Candida albicans [27]): 6.25 µg/mL (≈ 16.5 µM)
2 | COc1cc(-c2nnc(COc3cc(=O)oc4ccccc34)[nH]2)ccc1O | <10 | 13 | <10 | 50 (≈ 137 µM) | 6.25 (≈ 17.1 µM) | 15 | 6.25 (≈ 17.1 µM) | 15 | 12.5 (≈ 34.2 µM) | 12.5 (≈ 34.2 µM) | 14 | 12.5 (≈ 34.2 µM) | 12.5 (≈ 34.2 µM) | 25 (≈ 68.4 µM) | 12.5 (≈ 34.2 µM) | 12.5 (≈ 34.2 µM) | 12.5 (≈ 34.2 µM) | 12 | <10 | 11 | inhibition zone (IZ) (Escherichia coli [21]): 13 mm; MBC (Klebsiella pneumoniae [22]): 12.5 µg/mL (≈ 34.2 µM); MIC (Klebsiella pneumoniae [23]): 6.25 µg/mL (≈ 17.1 µM); inhibition zone (IZ) (Candida albicans [24]): 14 mm; MIC (Pseudomonas aeruginosa [25]): 25 µg/mL (≈ 68.4 µM); MIC (Escherichia coli [26]): 6.25 µg/mL (≈ 17.1 µM); MIC (Candida albicans [27]): 6.25 µg/mL (≈ 17.1 µM)
